In ChEMBL document CHEMBL1201862, “PubChem BioAssay data set” (2004):
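In this assay, cells in 96-well plates receive the compound at five concentrations for 48 hours. Endpoints are linearly interpolated between the surrounding concentrations. GI50 is the concentration that inhibits growth by half.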 The source made the active and inactive calls. Rule as the data show it: active = GI50 up to about 1.1 µM and inactive = higher.

Tests used:
Assay in all cases: NCI anticancer screen, dose series, 48 h
MOLT-4 = tested on: MOLT-4
OVCAR-3 = tested on: OVCAR-3
TK-10 = tested on: TK-10
K562 = tested on: K562
SN12C = tested on: SN12C
SK-MEL-2 = tested on: SK-MEL-2
NCI-H23 = tested on: NCI-H23
KM12 = tested on: KM12
OVCAR-8 = tested on: OVCAR-8
HCT-15 = tested on: HCT-15
M14 = tested on: M14
SW-620 = tested on: SW-620
SK-OV-3 = tested on: SK-OV-3
HL-60 = tested on: HL-60
HOP-62 = tested on: HOP-62
SNB-75 = tested on: SNB-75
EKVX = tested on: EKVX
A549 = tested on: A549
HCT-116 = tested on: HCT-116
ACHN = tested on: ACHN

Compound: O=C(N/C(=C\c1ccccc1[N+](=O)[O-])c1nc2ccccc2[nH]1)c1ccccc1
- GI50 (MOLT-4): 35.1 µM (inactive)
- GI50 (OVCAR-3): 68.1 µM (inactive)
- GI50 (TK-10): > 100 µM (inactive)
- GI50 (K562): 43.9 µM (inactive)
- GI50 (SN12C): > 100 µM (inactive)
- GI50 (SK-MEL-2): > 100 µM (inactive)
- GI50 (NCI-H23): > 100 µM (inactive)
- GI50 (KM12): > 100 µM (inactive)
- GI50 (OVCAR-8): 71.3 µM (inactive)
- GI50 (HCT-15): 88.9 µM
- GI50 (M14): > 100 µM (inactive)
- GI50 (SW-620): 58.5 µM (inactive)
- GI50 (SK-OV-3): > 100 µM (inactive)

Compound: O=C(CCN1CCOCC1)/C(=C/c1ccccc1)c1ccccc1
- GI50 (MOLT-4): 2.03 µM (inactive)
- GI50 (OVCAR-3): 3.76 µM (inactive)
- GI50 (K562): 1.89 µM (inactive)
- GI50 (SN12C): 4.15 µM (inactive)
- GI50 (HL-60): 1.79 µM (inactive)
- GI50 (HOP-62): 26.1 µM (inactive)
- GI50 (SK-MEL-2): 8.17 µM (inactive)
- GI50 (SNB-75): 9.14 µM (inactive)
- GI50 (EKVX): 8.18 µM (inactive)
- GI50 (NCI-H23): 4.15 µM (inactive)
- GI50 (KM12): 6.25 µM (inactive)
- GI50 (A549): 15.6 µM (inactive)
- GI50 (OVCAR-8): 1.95 µM (inactive)
- GI50 (HCT-15): 2.19 µM
- GI50 (SW-620): 2.47 µM (inactive)
- GI50 (HCT-116): 3.47 µM (inactive)
- GI50 (SK-OV-3): 19.3 µM (inactive)

Compound: CC(=O)c1c(-c2ccco2)c(C#N)c(=S)n(C2OC(CO)C(O)C(O)C2O)c1-c1ccccc1 (stereo not given)
- GI50 (MOLT-4): 31.6 µM (inactive)
- GI50 (OVCAR-3): > 100 µM (inactive)
- GI50 (TK-10): > 100 µM (inactive)
- GI50 (K562): 58.9 µM (inactive)
- GI50 (SN12C): 54.5 µM (inactive)
- GI50 (HL-60): 41.2 µM (inactive)
- GI50 (HOP-62): 47.6 µM (inactive)
- GI50 (ACHN): > 100 µM (inactive)
- GI50 (SNB-75): 69.7 µM (inactive)
- GI50 (EKVX): 43.1 µM (inactive)
- GI50 (NCI-H23): 31.8 µM (inactive)
- GI50 (KM12): 64.3 µM (inactive)
- GI50 (A549): > 100 µM (inactive)
- GI50 (OVCAR-8): 81.8 µM (inactive)
- GI50 (HCT-15): 73.3 µM
- GI50 (M14): 40.5 µM (inactive)
- GI50 (SW-620): 76 µM (inactive)
- GI50 (HCT-116): 66.2 µM (inactive)
- GI50 (SK-OV-3): > 100 µM (inactive)

Compound: OC(c1cc2ccccc2[nH]1)C(O)(c1cc2ccccc2[nH]1)c1cc2ccccc2[nH]1 (stereo not given)
- GI50 (MOLT-4): 8.07 µM (inactive)
- GI50 (OVCAR-3): 4.28 µM (inactive)
- GI50 (TK-10): 40.1 µM (inactive)
- GI50 (K562): 10.9 µM (inactive)
- GI50 (SN12C): 5.53 µM (inactive)
- GI50 (HL-60): 7.91 µM (inactive)
- GI50 (HOP-62): 15.4 µM (inactive)
- GI50 (SK-MEL-2): 17.9 µM (inactive)
- GI50 (ACHN): 18.6 µM (inactive)
- GI50 (EKVX): 12.3 µM (inactive)
- GI50 (NCI-H23): 5.83 µM (inactive)
- GI50 (KM12): 8 µM (inactive)
- GI50 (A549): 12.6 µM (inactive)
- GI50 (OVCAR-8): 15.9 µM (inactive)
- GI50 (HCT-15): 10 µM
- GI50 (SW-620): 10.1 µM (inactive)
- GI50 (HCT-116): 6.92 µM (inactive)
- GI50 (SK-OV-3): 10.4 µM (inactive)

Compound: CC1=N/C(=C\c2ccc(N)cc2)C(=O)N1Nc1nnc(NN2C(=O)/C(=C/c3ccc(N)cc3)N=C2C)c2ccccc12
- GI50 (MOLT-4): 35.2 µM (inactive)
- GI50 (K562): 27.4 µM (inactive)
- GI50 (SN12C): 96.2 µM (inactive)
- GI50 (HL-60): 22.1 µM (inactive)
- GI50 (HOP-62): 23.1 µM (inactive)
- GI50 (ACHN): > 100 µM (inactive)
- GI50 (SNB-75): 5.05 µM (inactive)
- GI50 (EKVX): > 100 µM (inactive)
- GI50 (NCI-H23): > 100 µM (inactive)
- GI50 (KM12): 37.6 µM (inactive)
- GI50 (A549): > 100 µM (inactive)
- GI50 (OVCAR-8): > 100 µM (inactive)
- GI50 (HCT-15): 82.2 µM
- GI50 (M14): > 100 µM (inactive)
- GI50 (SW-620): 83.9 µM (inactive)
- GI50 (HCT-116): > 100 µM (inactive)

Compound: O=C1O/C(=C\c2ccc(O)c(Br)c2)C(c2ccc(O)c(Cl)c2)=C1Br
- GI50 (MOLT-4): 16.6 µM (inactive)
- GI50 (OVCAR-3): 17.8 µM (inactive)
- GI50 (TK-10): 25.2 µM (inactive)
- GI50 (K562): 17.3 µM (inactive)
- GI50 (SN12C): 25.8 µM (inactive)
- GI50 (HL-60): 20 µM (inactive)
- GI50 (HOP-62): 19.9 µM (inactive)
- GI50 (SK-MEL-2): 19.1 µM (inactive)
- GI50 (ACHN): 15.2 µM (inactive)
- GI50 (EKVX): 21.2 µM (inactive)
- GI50 (NCI-H23): 17.3 µM (inactive)
- GI50 (KM12): 15 µM (inactive)
- GI50 (A549): 18.4 µM (inactive)
- GI50 (OVCAR-8): 23 µM (inactive)
- GI50 (HCT-15): 12.7 µM
- GI50 (M14): 17.8 µM (inactive)
- GI50 (SW-620): 17.3 µM (inactive)
- GI50 (HCT-116): 13.7 µM (inactive)
- GI50 (SK-OV-3): 18 µM (inactive)

Compound: CCC1C(C#N)=C(O)NC(O)=C1C#N
- GI50 (OVCAR-3): > 100 µM (inactive)
- GI50 (TK-10): > 100 µM (inactive)
- GI50 (SN12C): > 100 µM (inactive)
- GI50 (HOP-62): > 100 µM (inactive)
- GI50 (SK-MEL-2): > 100 µM (inactive)
- GI50 (ACHN): > 100 µM (inactive)
- GI50 (SNB-75): > 100 µM (inactive)
- GI50 (EKVX): > 100 µM (inactive)
- GI50 (NCI-H23): > 100 µM (inactive)
- GI50 (KM12): > 100 µM (inactive)
- GI50 (A549): > 100 µM (inactive)
- GI50 (OVCAR-8): > 100 µM (inactive)
- GI50 (HCT-15): > 100 µM
- GI50 (M14): > 100 µM (inactive)
- GI50 (SW-620): > 100 µM (inactive)
- GI50 (HCT-116): > 100 µM (inactive)
- GI50 (SK-OV-3): > 100 µM (inactive)

Compound: O=C1c2cccc(O)c2C(=O)c2c(O)cc(CO)cc21 [ALOE-EMODIN]
- GI50 (MOLT-4): 40.8 µM (inactive)
- GI50 (TK-10): > 100 µM (inactive)
- GI50 (SN12C): 35.4 µM (inactive)
- GI50 (HL-60): 24.8 µM (inactive)
- GI50 (HOP-62): > 100 µM (inactive)
- GI50 (SK-MEL-2): 91.8 µM (inactive)
- GI50 (ACHN): 32.7 µM (inactive)
- GI50 (SNB-75): 72.8 µM (inactive)
- GI50 (NCI-H23): > 100 µM (inactive)
- GI50 (KM12): 40.2 µM (inactive)
- GI50 (A549): 40 µM (inactive)
- GI50 (HCT-15): 28.1 µM
- GI50 (M14): 38.4 µM (inactive)
- GI50 (SW-620): 30.5 µM (inactive)
- GI50 (HCT-116): 30.1 µM (inactive)
- GI50 (SK-OV-3): > 100 µM (inactive)
